Where “and” joins values, the source holds several entries; their conditions need not be identical. Equal values may be shown once. Read-outs that look alike come from different tables or passages of the source. Where a SMILES comes first, the peptide text is derived from it. Bridges are numbered along the chain shown (N, C = ends).
Experiments:
human TrkB receptor = molecular target: T1, human TrkB receptor (Homo sapiens, UniProt Q16620); assay: KIRA-ELISA (TrkB tyrosine phosphorylation) in TetOn-rhTrkB CHO cells; assay type: cell-based; conditions: for IC50 / ratio signal/background / EC50: TetOn-rhTrkB cells; for EC50: read-out: EC50, TrkB activation
T1 construct: expressed in transfected cells
T1 sequence (Q16620 32-822): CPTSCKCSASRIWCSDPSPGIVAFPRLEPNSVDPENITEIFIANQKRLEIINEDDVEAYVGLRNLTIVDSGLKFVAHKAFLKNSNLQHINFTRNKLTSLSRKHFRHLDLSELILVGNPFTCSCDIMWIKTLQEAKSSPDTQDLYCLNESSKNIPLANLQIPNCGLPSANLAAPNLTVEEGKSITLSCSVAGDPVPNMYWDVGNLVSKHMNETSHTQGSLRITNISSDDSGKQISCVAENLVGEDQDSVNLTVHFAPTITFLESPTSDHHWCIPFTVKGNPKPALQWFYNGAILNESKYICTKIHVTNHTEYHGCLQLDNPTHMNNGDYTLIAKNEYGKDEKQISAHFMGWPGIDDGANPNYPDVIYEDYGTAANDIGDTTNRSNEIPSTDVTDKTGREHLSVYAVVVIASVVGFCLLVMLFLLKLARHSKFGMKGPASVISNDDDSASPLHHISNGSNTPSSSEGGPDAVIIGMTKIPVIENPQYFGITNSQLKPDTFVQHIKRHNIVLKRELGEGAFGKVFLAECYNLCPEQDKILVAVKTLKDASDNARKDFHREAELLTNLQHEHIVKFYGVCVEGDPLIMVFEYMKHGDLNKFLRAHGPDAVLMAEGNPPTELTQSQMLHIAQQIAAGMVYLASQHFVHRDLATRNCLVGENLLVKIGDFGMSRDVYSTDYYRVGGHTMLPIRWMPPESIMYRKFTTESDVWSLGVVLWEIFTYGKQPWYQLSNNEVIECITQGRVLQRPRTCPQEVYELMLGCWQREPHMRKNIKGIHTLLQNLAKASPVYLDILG
Excerpt: (§1) The human recombinant TrkB receptor was fluorescently tagged at its C-terminus with the Enhanced cyan fluorescent protein (rhTrkB-ECFP) by cloning the full human TrkB sequence (kindly provided by G. M. Brodeur) into the pECFP-N1 expression vector (Clontech). For inducible expression, rhTrkB-ECFP was subcloned into the tetracycline-responsive (TetOn) vector pTRE2 (Clontech). Chinese Hamster Ovary cells stably expressing rhTrkB-ECFP (TetOn-rhTrkB cells), were produced by transfection of the pTRE2-rhTrkB-ECFP plasmid into CHO-K1 TetOn cells (Clontech) followed by clone selection in 0.25 mg/ml hygromycin B (Invitrogen) and 0.1 mg/ml geneticin (G418; Invitrogen). Resistant cells were selected based on both fluorescence intensity and KIRA-ELISA profile after an overnight incubation in presence of 1000 ng/ml doxycycline (Clontech). Cortical neurons were prepared and cultured from E16 mouse embryos as described previously. The nnr5 PC12-TrkA, nnr5 PC12-TrkB and nnr5 PC12-TrkC cells (kindly provided by M. V. Chao) are NGF non-responding mutant PC12 cells stably transfected with TrkA, TrkB and TrkC cDNA, respectively.
(§2) TrkB activity was quantified using the previously described KIRA-ELISA assay with slight modifications. Cortical neurons were seeded on polyornithin-coated flat-bottom 96-well culture plates (12×10^4 cells per well) and cultured eight days at 37°C in 5% CO2. TetOn-rhTrkB cells were seeded on flat-bottom 96-well culture plates (4×10^4 cells per well) and incubated overnight with 1000 ng/ml doxycycline (Figs. S1,S2) except when indicated. Fluorescence levels in TetOn-rhTrkB cells were verified before each assay. […] Assay was stopped by removing the medium on ice and membranes were solubilized using KIRA-ELISA solubilization buffer (NaCl 150 mM, Hepes 50 mM, Triton X-100 0.5%, thimerosal 0.01%, sodium orthovanadate 2 mM, supplemented with a cocktail of protease inhibitors) for 1 h at room temperature. Solubilized membranes were transferred for 2 h at room temperature onto ELISA microtiter plate (Nunc Maxisorp) pre-coated overnight at 4°C with appropriate antibodies [polyclonal anti-GFP (1∶5000, Clontech) for TetOn-rhTrkB, polyclonal anti-TrkB (1 µg/ml, Upstate) for cultured neurons and brain slices, for phosphorylation assays; monoclonal anti-GFP (1∶3000, Chemicon) for TetOn-rhTrkB, monoclonal anti-TrkB (1∶1000, BD Biosciences) for cultured neurons and brain slices, for total TrkB quantification]. […] Absorbance was read at 450 nm after addition of 3,3′,5′,5-tetramethyl-benzidine substrate (Sigma) and acidification with 1N hydrochloric acid.
(§3) Concentration-response and competition curves were obtained using an iterative least-squares method derived from that of Parker & Waud (1971). […] Concentration-response curves and Eadie-Hofstee plots were analyzed using two-way ANOVA. Significance over time in locomotor activity studies was given using two-way ANOVA followed by Bonferroni's post-hoc test. […] One-way ANOVA followed by post-hoc Dunnett's test was used to evaluate statistical significance compare to saline group in EPM and FST procedures. n represents the number of independent experiments.

nnr5 PC12 cells = assay: Morphological analysis of toxicity / cell death; assay type: cell-based; conditions: 72 hours after exposure to 10 µM
[1] = molecular target: T2, native TrkB receptors in cortical neurons (Mus musculus, UniProt P15209); assay: KIRA-ELISA (TrkB tyrosine phosphorylation) in primary cortical neurons; assay type: cell-based; conditions: for EC50: read-out: EC50, TrkB activation
T2 construct: cortical neurons naturally express TrkB receptors; endogenous in cells; host or cells: primary cortical neurons from E16 mouse embryos
T2 sequence (P15209 32-821): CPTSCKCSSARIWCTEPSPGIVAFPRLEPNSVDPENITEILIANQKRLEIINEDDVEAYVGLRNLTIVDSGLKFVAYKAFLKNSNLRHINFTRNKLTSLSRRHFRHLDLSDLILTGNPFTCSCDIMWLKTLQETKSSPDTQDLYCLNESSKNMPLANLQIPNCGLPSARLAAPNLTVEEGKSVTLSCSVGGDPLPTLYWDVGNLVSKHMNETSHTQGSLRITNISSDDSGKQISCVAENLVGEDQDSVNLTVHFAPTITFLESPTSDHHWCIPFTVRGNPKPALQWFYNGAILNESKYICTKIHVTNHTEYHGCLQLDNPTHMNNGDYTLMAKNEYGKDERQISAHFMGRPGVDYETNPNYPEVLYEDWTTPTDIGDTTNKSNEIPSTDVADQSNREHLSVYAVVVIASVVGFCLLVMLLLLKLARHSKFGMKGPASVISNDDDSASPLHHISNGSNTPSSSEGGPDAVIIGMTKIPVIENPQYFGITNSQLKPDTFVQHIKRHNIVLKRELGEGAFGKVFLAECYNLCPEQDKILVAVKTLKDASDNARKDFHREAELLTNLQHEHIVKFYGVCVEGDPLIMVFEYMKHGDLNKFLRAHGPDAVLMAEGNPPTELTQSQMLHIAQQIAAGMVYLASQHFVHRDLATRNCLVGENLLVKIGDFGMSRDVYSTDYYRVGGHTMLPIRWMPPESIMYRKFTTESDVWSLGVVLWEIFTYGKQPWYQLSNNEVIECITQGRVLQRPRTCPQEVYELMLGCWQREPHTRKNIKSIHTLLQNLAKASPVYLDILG
Excerpt: as §1, §2, §3

nnr5 PC12-TrkB cells = conditions: 48 h
mice [2] = assay: Elevated plus-maze (EPM); assay type: in vivo, mouse; conditions: vs saline
Protocol: (§4) Mice were treated as described above before being subjected to behavioral studies. Predictive estimation for anxiolytic properties of tat-cyclotraxin-B was assessed using open field and elevated plus-maze (EPM). Antidepressant-like action of tat-cyclotraxin-B was assessed with the forced-swim test (FST). Effects of acute treatment with tat-cyclotraxin-B on spontaneous locomotion, exploration and reactivity to a novel open field was assessed in plexiglas activity chambers (Med Associates; 45×45×31 cm). Mice were placed into the center of the open field, and activity was recorded for 30 min. Testing took place under bright ambient light conditions to increase the anxiety component of the center areas of the field (defined as the central 15×15 cm portion). Mice subjected to EPM received a double 90-interval i.v. injection of tat-cyclotraxin-B or saline buffer before being placed on the platform of the EPM and assessed for 5 min (26×5×36 cm). The diazepam control group consisted of saline buffer double-treated mice that further received a 30-min i.p. injection of diazepam (1 mg/kg). Mice were assessed for number of entries and amount of time spent in open versus closed arms. The FST procedure was applied to treated mice as described by Porsolt et al. (see ref. [60]). Mice were dropped individually into glass cylinder (height, 25 cm; diameter, 10 cm) containing 10 cm water height, maintained at 23–25°C. Animals were tested for a total of 6 min. The total time of swimming, the number of climbing attempts and the time of immobility was recorded during the last 4 min of the session, after 2 min of habituation. The paroxetine control group consisted of saline buffer double-treated mice that further received a 30-min i.p. injection of paroxetine (2 mg/kg). Behaviors were recorded on videotape and scored blind.

mice [3] = assay: Forced swim test (FST); assay type: in vivo, mouse; conditions: acute treatment, vs saline
Protocol: as §4

TrkB in brain slices = molecular target: T3, TrkB in brain slices (Mus musculus, UniProt P15209); assay: KIRA-ELISA in brain slices incubated with peptide; assay type: cell-based; conditions: peptide added to brain slices
T3 construct: KIRA-ELISA analysis of brain TrkB receptors from mice; from tissue; host or cells: adult Swiss mouse brain, 300-µm coronal slices
T3 sequence (P15209 32-821): as above
Protocol: TrkB activity was quantified using the previously described KIRA-ELISA assay with slight modifications. Cortical neurons were seeded on polyornithin-coated flat-bottom 96-well culture plates (12×10^4 cells per well) and cultured eight days at 37°C in 5% CO2. TetOn-rhTrkB cells were seeded on flat-bottom 96-well culture plates (4×10^4 cells per well) and incubated overnight with 1000 ng/ml doxycycline (Figs. S1,S2) except when indicated. Fluorescence levels in TetOn-rhTrkB cells were verified before each assay. […] Solubilized membranes were transferred for 2 h at room temperature onto ELISA microtiter plate (Nunc Maxisorp) pre-coated overnight at 4°C with appropriate antibodies [polyclonal anti-GFP (1∶5000, Clontech) for TetOn-rhTrkB, polyclonal anti-TrkB (1 µg/ml, Upstate) for cultured neurons and brain slices, for phosphorylation assays; monoclonal anti-GFP (1∶3000, Chemicon) for TetOn-rhTrkB, monoclonal anti-TrkB (1∶1000, BD Biosciences) for cultured neurons and brain slices, for total TrkB quantification]. […] Absorbance was read at 450 nm after addition of 3,3′,5′,5-tetramethyl-benzidine substrate (Sigma) and acidification with 1N hydrochloric acid.

[4] = TrkB + p75NTR co-expressing cortical neurons

Molecule: COC(=O)[C@@]1(O)C[C@H]2O[C@]1(C)n1c3ccccc3c3c4c(c5c6ccccc6n2c5c31)C(=O)NC4 [K252a, reference compound]
- reversal of BDNF signal (human TrkB receptor; KIRA-ELISA, BDNF 4 nM, TetOn-rhTrkB cells and cortical neurons (Fig. S2)): fully reversed

Molecule: CSCC[C@@H]1NC(=O)[C@@H]2CCCN2C(=O)[C@H](CC(N)=O)NC(=O)[C@@H](N)CSSC[C@@H](C(=O)O)NC(=O)CNC(=O)[C@H](CCC(=O)O)NC(=O)[C@H](CCCCN)NC(=O)[C@H]([C@@H](C)O)NC(=O)[C@H](Cc2ccc(O)cc2)NC(=O)CNC1=O [cyclotraxin-B] (H-CNPMGYTKEGC-OH; disulfide 1-11; N-terminus and C-terminus assumed)
- IC50 (human TrkB receptor; with BDNF, read-out: IC50, inhibition of BDNF-induced TrkB activity): 0.3 ± 0.07 nM
- IC50 (human TrkB receptor; without BDNF, read-out: IC50, BDNF-independent (basal) TrkB activity): 0.28 ± 0.08 nM
- cell death (nnr5 PC12 cells): no cell death
- IC50 ([1]; cortical neurons, with BDNF, read-out: IC50, inhibition of BDNF-induced TrkB activity): 0.0671 ± 0.0189 nM
- IC50 ([1]; neurons, without BDNF, read-out: IC50, BDNF-independent (basal) TrkB activity): 0.0657 ± 0.0217 nM
- IC50 (nnr5 PC12-TrkB cells): 0.0122 ± 0.0085 nM

Molecule: C[C@@H]1C[C@H]2[C@@H]3CCC4=CC(=O)C=C[C@]4(C)[C@@]3(F)[C@@H](O)C[C@]2(C)[C@@]1(O)C(=O)CO [dexamethasone, reference compound]
- TrkB phosphorylation (indirect activation) ([1]; cortical neurons, 1 µM, 2 h): significantly triggered

Molecule: CN1C(=O)CN=C(c2ccccc2)c2cc(Cl)ccc21 [diazepam, reference compound]
- EPM number of entries in open arms (mice [2]): significantly increased
- EPM time spent in open arms (mice [2]): significantly increased

Molecule: Fc1ccc([C@@H]2CCNC[C@H]2COc2ccc3c(c2)OCO3)cc1 [paroxetine, reference compound]
- FST climbing attempts (mice [3]): increased
- FST time of immobility (mice [3]): significant decreased

Molecule: NGF: neurotrophin
- KIRA-ELISA signal (human TrkB receptor; recombinant cells): did not produce any signal
- KIRA-ELISA signal ([1]; neuronal cells): did not produce any signal

Molecule: NT-3: neurotrophin
- ratio signal/background (human TrkB receptor): 3.8
- EC50 (human TrkB receptor): 0.702 ± 0.134 nM
- agonist behaviour at TrkB [1, 4]: partial agonist
- ratio signal/background [1, 4]: 1.7
- EC50 ([1]; neuronal TrkB receptors): 0.716 ± 0.167 nM

Molecule: YGRKKRRQRRR [tat-empty, reference compound]
- TrkB inhibition in brain slices (TrkB in brain slices): did not produce any effect

B1: BDNF: neurotrophin, cognate ligand of TrkB; mature recombinant human BDNF (Peprotech) (protein, UniProt P23560 19-247, looked up)
Neurotrophic factor BDNF …: APMKEANIRGQGGLAYPGVRTHGTLESVNGPKAGSRGLTSLADTFEHVIEELLDEDQKVRPNEENNKDADLYTSRVMLSSQVPLEPPLLFLLEEYKNYLDAANMSMRVRRHSDPARRGELSVCDSISEWVTAADKKTAVDMSGGTVTVLEKVPVSKGQLKQYFYETKCNPMGYTKEGCRGIDKRHWNSQCRTTQSYVRALTMDSKKRIGWRFIRIDTSCVCTLTIKRGR
- ratio signal/background (human TrkB receptor): 3.94
- EC50 (human TrkB receptor; agonist alone): 0.672 nM and 0.614 nM
- EC50 ([1]; cortical neurons, agonist alone): 0.186 nM and 0.208 nM

Reference: article PMC2841647 (PLoS ONE, 2010)
